These results are taken from patent US20260176249A1, “PROTEIN KINASE INHIBITOR, PREPARATION METHOD THEREFOR, AND APPLICATION THEREOF” (SHANDONG LUYE PHARMACEUTICAL CO., LTD., priority 2021, published 2026).

The test system of the test is HCT116 cells. As to the kind of experiment: In vivo pharmacodynamic study of compound 1 in HCT116 tumor-bearing mice. The arrangement: species or system Balb/C Nude mice. To be noted: 20 mg/kg once a day by gavage, vs sham group. An excerpt:
Balb/C Nude mice, SPF grade, male, weighing 18-20 g, were purchased from Jiangsu Gempharmatech Co., Ltd.
HCT116 cells were purchased from ATCC.
Matrigel Matrix, Cat. No. 354248, was purchased from Becton, Dickinson and Company.
Kolliphor® HS 15, Cat. No. 42966, was purchased from Sigma-Aldrich.
a. Establishment of tumor-bearing mouse model: HCT116 cells in the logarithmic growth phase were taken and cultured, the cells were collected and counted, and then subcutaneously inoculated into Balb/C Nude mice at 1×10^6/mouse. The tumor volume and body weight of the mice were measured regularly. 7 days after inoculation, mice with tumor volume of 150 mm3 were randomly divided into groups and treated with corresponding drugs.
b. […] The administration was performed once a day by gavage for 21 consecutive days, and the tumor volume and body weight of the mice were measured regularly.
3. Data processing: All data were organized in EXCEL, and One-way ANOVA analysis and drawing were performed using GraphPad Prism 8.0 software. Statistical significance was achieved when p<0.05.

Take `CN1CCN(c2ccc(OC(F)(F)F)c(Nc3ncc4c(n3)-c3c(c(C(N)=O)nn3CCO)CC4)c2)CC1` [Onvansertib, reference compound]: the tumor inhibition rate amounted to 54.9% (11 days), 39.6% (16 days) and 37.0% (21 days).
